In patent US9216954B2, “Serine racemase inhibitor” (National University Corporation University of Toyama, priority 2012, dated 2015):

Work on `O=C(CNS(=O)(=O)Cc1ccccc1)Nc1c(F)cccc1F` [DR-1, N-(2,6-difluorophenyl)-2-phenylmethanesulfonylaminoacetamide] yielded a melting point of 141 to 142 °C. `Cc1ccc(S(=O)(=O)NCC(=O)Nc2c(F)cccc2F)cc1` [DR-2, N-(2,6-Difluoro-phenyl)-2-(toluene-4-sulfonylamino)-acetamide] gave a melting point of 129 to 130 °C. For `CC(NC(=O)CNS(=O)(=O)Cc1ccccc1)c1ccccc1` (centres unmarked) [DR-3, N-(1-Phenyl-ethyl)-2-phenylmethanesulfonylamino-acetamide], the melting point was 147 to 148 °C. With `Cc1ccc(S(=O)(=O)NCC(=O)NCc2ccc(Br)cc2)cc1` [DR-10, N-(4-Bromo-benzyl)-2-(toluene-4-sulfonylamino)-acetamide] the melting point was 207 to 208 °C. `Cc1ccc(S(=O)(=O)NCC(=O)NCc2ccc(Br)cc2F)cc1` [DR-11, N-(4-Bromo-2-fluoro-benzyl)-2-(toluene-4-sulfonylamino)-acetamide] gave a melting point of 123 to 124 °C. `O=C(CNS(=O)(=O)Cc1ccccc1)Nc1cccc(Br)c1` [DR-12, N-(3-bromophenyl)-2-phenylmethanesulfonylaminoacetamide] showed a melting point of 215 to 216 °C. Compound `O=C(CNS(=O)(=O)Cc1ccccc1)Nc1ccc(Cl)cc1` [DR-14, N-(4-Chloro-phenyl)-2-phenylmethanesulfonylamino-acetamide] has a melting point of 200 to 201 °C. Compound `Cc1ccc(/C=C/S(=O)(=O)NCC(=O)NCc2ccc(Br)cc2)cc1` [DR-31, N-(4-Bromo-benzyl)-2-(2-p-tolyl-ethenesulfonylamino)-acetamide] has a melting point of 200 to 201 °C. For `COc1ccc(NC(=O)CNS(=O)(=O)/C=C/c2ccc(C)cc2)cc1` [DR-32, N-(4-Methoxy-phenyl)-2-(2-p-tolyl-ethenesulfonylamino)-acetamide], the melting point was 145 to 146 °C. In the case of `Cc1ccc(/C=C/S(=O)(=O)NCC(=O)Nc2ccc(Br)cc2)cc1` [DR-33, N-(4-Bromo-phenyl)-2-(2-p-tolyl-ethenesulfonylamino)-acetamide], the melting point is reported as 216 to 219 °C. `O=C(/C=C/c1ccc(Cl)cc1)NC(=S)NNC(=O)Cc1cccs1` [LW-1, 3-(4-Chloro-phenyl)-N—[N′-(2-thiophen-2-yl-acetyl)-hydrazinocarbothioyl]-acrylamide] showed a melting point of 232 to 233 °C. With `O=C(/C=C/c1c(Cl)cc(Cl)cc1Cl)NC(=S)NNC(=O)Cc1cccs1` [LW-2, N—[N′-(2-Thiophen-2-yl-acetyl)-hydrazinocarbothioyl]-3-(2,4,6-trichloro-phenyl)-acrylamide] the melting point was 219 to 220 °C. Work on `O=C(/C=C/c1ccc([N+](=O)[O-])cc1)NC(=S)NNC(=O)Cc1cccs1` [LW-3, 3-(4-Nitro-phenyl)-N—[N′-(2-thiophen-2-yl-acetyl)-hydrazinocarbothioyl]-acrylamide] yielded a melting point of 222 to 223 °C. `Cc1ccc(/C=C/C(=O)NC(=S)NNC(=O)Cc2cccs2)cc1` [LW-4, N—[N′-(2-Thiophen-2-yl-acetyl)-hydrazinocarbothioyl]-3-p-tolyl-acrylamide] gave a melting point of 212 to 213 °C. `COc1ccc(/C=C/C(=O)NC(=S)NNC(=O)Cc2cccs2)c(OC)c1` [LW-6, 3-(2,4-Dimethoxy-phenyl)-N—[N′-(2-thiophen-2-yl-acetyl)-hydrazinocarbothioyl]-acrylamide] gave a melting point of 207 to 208 °C. In the case of `O=C(/C=C/c1cc(Br)cc(Br)c1)NC(=S)NNC(=O)Cc1cccs1` [LW-7, 3-(3,5-Dibromo-phenyl)-N—[N′-(2-thiophen-2-yl-acetyl)-hydrazinocarbothioyl]-acrylamide], the melting point is reported as 212 to 213 °C. For `CC(C)c1ccc(/C=C/C(=O)NC(=S)NNC(=O)Cc2cccs2)cc1` [LW-8, 3-(4-Isopropyl-phenyl)-N—[N′-(2-thiophen-2-yl-acetyl)-hydrazinocarbothioyl]-acrylamide], the melting point was 201 to 202 °C. With `O=C(/C=C/c1ccc(-c2ccccc2)cc1)NC(=S)NNC(=O)Cc1cccs1` [LW-9, 3-Biphenyl-4-yl-N—[N′-(2-thiophen-2-yl-acetyl)-hydrazinocarbothioyl]-acrylamide] the melting point was 231 to 232 °C. `COc1cccc(OC)c1/C=C/C(=O)NC(=S)NNC(=O)Cc1cccs1` [LW-10, 3-(2,6-Dimethoxy-phenyl)-N—[N′-(2-thiophen-2-yl-acetyl)-hydrazinocarbothioyl]-acrylamide] showed a melting point of 220 to 221 °C. Compound `O=C(/C=C/c1c(F)cc(F)cc1F)NC(=S)NNC(=O)Cc1cccs1` [LW-11, N—[N′-(2-Thiophen-2-yl-acetyl)-hydrazinocarbothioyl]-3-(2,4,6-trifluoro-phenyl)-acrylamide] has a melting point of 207 to 208 °C. With `O=C(/C=C/c1ccc(F)cc1)NC(=S)NNC(=O)Cc1ccccc1` [LW-12, 3-(4-Fluoro-phenyl)-N—(N′-phenylacetyl-hydrazinocarbothioyl)-acrylamide] the melting point was 212 to 213 °C. `O=C(/C=C/c1c(F)cc(F)cc1F)NC(=S)NNC(=O)Cc1ccccc1` [LW-14, N—(N′-Phenylacetyl-hydrazinocarbothioyl)-3-(2,4,6-trifluoro-phenyl)-acrylamide] gave a melting point of 210 to 211 °C. In the case of `O=C(/C=C/c1ccc(F)cc1)NC(=S)NNC(=O)c1cccs1` [LW-16, 3-(4-Fluoro-phenyl)-N—[N′-(thiophene-2-carbonyl)-hydrazinocarbothioyl]-acrylamide], the melting point is reported as 217 to 218 °C. `O=C(Cc1cccs1)NNC(=S)NC(=O)Cc1ccccc1` [LW-18, 2-Phenyl-N—[N′-(2-thiophen-2-yl-acetyl)-hydrazinocarbothioyl]-acetamide] gave a melting point of 161 to 162 °C. Work on `COc1cccc(OC)c1/C=C/C(=O)NC(=S)NNC(=O)c1cccs1` [LW-19, 3-(2,6-Dimethoxy-phenyl)-N—[N′-(thiophene-2-carbonyl)-hydrazinocarbothioyl]-acrylamide] yielded a melting point of 209 to 210 °C. `O=C(/C=C/c1cc(Br)cc(Br)c1)NC(=S)NNC(=O)c1cccs1` [LW-20, 3-(3,5-Dibromo-phenyl)-N—[N′-(thiophene-2-carbonyl)-hydrazinocarbothioyl]-acrylamide] gave a melting point of 217 to 218 °C. `O=C(/C=C/c1cc(Br)cc(Br)c1)NC(=S)NNC(=O)Cc1ccc(F)cc1` [LW-21, 3-(3,5-Dibromo-phenyl)-N-{N′-[2-(4-fluoro-phenyl)-acetyl]hydrazinocarbothioyl}-acrylamide] showed a melting point of 195 to 196 °C. Work on `O=C(Cc1ccc(F)cc1)NNC(=S)NC(=O)Cc1ccccc1` [LW-22, N-{N′-[2-(4-Fluoro-phenyl)-acetyl]-hydrazinocarbothioyl}-2-phenyl-acetamide] yielded a melting point of 182 to 183 °C. Work on `O=C(/C=C/c1cc(Br)cc(Br)c1)NC(=S)NNC(=O)c1ccccc1` [LW-23, N—(N′-Benzoyl-hydrazinocarbothioyl)-3-(3,5-dibromo-phenyl)-acrylamide] yielded a melting point of 224 to 225 °C. In the case of `Cc1cccc(CC(=O)NNC(=S)NC(=O)/C=C/c2cc(Br)cc(Br)c2)c1` [LW-24, 3-(3,5-Dibromo-phenyl)-N—[N′-(2-m-tolyl-acetyl)-hydrazinocarbothioyl]-acrylamide], the melting point is reported as 203 to 204 °C. `Cc1cccc(CC(=O)NNC(=S)NC(=O)Cc2ccccc2)c1` [LW-25, 2-Phenyl-N—[N′-(2-m-tolyl-acetyl)-hydrazinocarbothioyl]-acetamide] gave a melting point of 149 to 150 °C. In the case of `COc1cccc(CC(=O)NNC(=S)NC(=O)/C=C/c2cc(Br)cc(Br)c2)c1` [LW-26, 3-(3,5-Dibromo-phenyl)-N-{N′-[2-(3-methoxy-phenyl)-acetyl]-hydrazinocarbothioyl}-acrylamide], the melting point is reported as 202 to 203 °C. In the case of `O=C(Cc1c(F)cccc1F)NNC(=S)NC(=O)Cc1ccccc1` [LW-28, N-{N′-[2-(2,6-Difluoro-phenyl)-acetyl]-hydrazinocarbothioyl}-2-phenyl-acetamide], the melting point is reported as 174 to 175 °C. In the case of `O=C(Cc1cc(F)cc(F)c1)NNC(=S)NC(=O)Cc1ccccc1` [LW-29, N-{N′-[2-(3,5-Difluoro-phenyl)-acetyl]-hydrazinocarbothioyl}-2-phenyl-acetamide], the melting point is reported as 178 to 179 °C. Work on `O=C(CCc1ccccc1)NNC(=S)NC(=O)Cc1ccccc1` [LW-30, 2-Phenyl-N—[N′-(3-phenyl-propionyl)-hydrazinocarbothioyl]-acetamide] yielded a melting point of 88 to 90 °C. Work on `O=C(/C=C/c1cc(Br)cc(Br)c1)NC(=S)NNC(=O)CCc1ccccc1` [LW-31, 3-(3,5-Dibromo-phenyl)-N—[N′-(3-phenyl-propionyl)-hydrazinocarbothioyl]acrylamide] yielded a melting point of 213 to 214 °C. `O=C(Cc1ccc(F)cc1)NNC(=S)NC(=O)Cc1ccc(F)cc1` [LW-32, 2-(4-Fluoro-phenyl)-N-{N′-[2-(4-fluoro-phenyl)-acetyl]-hydrazinocarbothioyl}-acetamide] gave a melting point of 178 to 179 °C. With `O=C(Cc1ccc(F)cc1)NNC(=S)NC(=O)Cc1c(F)cccc1F` [LW-33, 2-(2,6-Difluoro-phenyl)-N-{N′-[2-(4-fluoro-phenyl)-acetyl]-hydrazinocarbothioyl}-acetamide] the melting point was 186 to 187 °C. `O=C(Cc1ccc(F)cc1)NNC(=S)NC(=O)CC1CCCCC1` [LW-34, 2-Cyclohexyl-N-{N′-[2-(4-fluoro-phenyl)-acetyl]-hydrazinocarbothioyl}-acetamide] gave a melting point of 132 to 133 °C. Work on `COc1ccc(NC(=O)CNC(=O)COc2ccccc2)c(C)c1` [MM-1, N-[(4-methoxy-2-methylphenylcarbamoyl)methyl]-2-phenoxyacetamide] yielded a melting point of 165 to 166 °C. Work on `COc1ccc(NC(=O)CNC(=O)COc2ccc(Cl)cc2)c(C)c1` [MM-2, 2-(4-Chloro-phenoxy)-N-[(4-methoxy-2-methyl-phenylcarbamoyl)-methyl]-acetamide] yielded a melting point of 170 to 171 °C. Compound `COc1ccc(NC(=O)CNC(=O)COc2ccc(Br)cc2)c(C)c1` [MM-3, 2-(4-Bromo-phenoxy)-N-[(4-methoxy-2-methyl-phenylcarbamoyl)-methyl]-acetamide] has a melting point of 159 to 160 °C. With `O=C(COc1ccc(Cl)cc1)NCC(=O)Nc1ccc(I)cc1` [MM-4, 2-(4-Chloro-phenoxy)-N-[(4-iodo-phenylcarbamoyl)-methyl]-acetamide] the melting point was 205 to 206 °C. With `O=C(COc1ccc(Br)cc1)NCC(=O)Nc1ccc(I)cc1` [MM-5, 2-(4-Bromo-phenoxy)-N-[(4-iodo-phenylcarbamoyl)-methyl]acetamide] the melting point was 211 to 212 °C.
